Assay results from ChEMBL document CHEMBL6092143, “Synthesis and evaluation of lipoic acid - donepezil hybrids for Alzheimer's disease using a straightforward strategy” (Bioorg Med Chem Lett, 2024).
The source made the active and inactive calls. The calls are words filed in the database; no cut-off is given here.

Experiments:
SK-N-BE(2) [1] = assay: Inhibition of t-BHP-induced ROS production in human SK-N-BE(2) cells at 100 uM incubated for 3 hrs by DCFH-DA probe based analysis; format: functional, cell-based
Cholinesterase = Cholinesterase (Homo sapiens, UniProt P06276); assay: Inhibition of human BChE by Ellman's method
Cholinesterase, sequence (P06276 whole entry): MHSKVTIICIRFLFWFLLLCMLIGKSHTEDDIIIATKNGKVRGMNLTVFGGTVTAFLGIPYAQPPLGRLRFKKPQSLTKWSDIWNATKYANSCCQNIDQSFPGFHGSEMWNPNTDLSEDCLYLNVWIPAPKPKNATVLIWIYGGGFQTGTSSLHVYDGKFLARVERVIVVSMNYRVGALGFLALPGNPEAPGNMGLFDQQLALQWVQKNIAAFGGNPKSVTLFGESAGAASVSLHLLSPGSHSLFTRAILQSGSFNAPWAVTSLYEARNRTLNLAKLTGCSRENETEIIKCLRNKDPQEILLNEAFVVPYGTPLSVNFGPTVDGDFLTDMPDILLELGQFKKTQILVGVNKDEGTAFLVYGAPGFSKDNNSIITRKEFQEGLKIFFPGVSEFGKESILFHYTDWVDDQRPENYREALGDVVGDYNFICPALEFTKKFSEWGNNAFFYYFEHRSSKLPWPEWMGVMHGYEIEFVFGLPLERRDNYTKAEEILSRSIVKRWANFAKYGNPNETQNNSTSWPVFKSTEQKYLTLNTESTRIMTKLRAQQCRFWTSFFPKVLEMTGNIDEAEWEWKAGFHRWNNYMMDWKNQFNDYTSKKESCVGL

[2] = Antioxidant activity assessed as DPPH radical scavenging activity incubated for 2 hrs under dark condition by absorbance based assay; format: functional
SK-N-BE(2) [3] = assay: Cytotoxicity against human SK-N-BE(2) cells upto 100 uM incubated for 3 hrs by MTT assay; format: toxicity, cell-based
[4] = Antioxidant activity assessed as trolox equivalent of ORAC radical scavenging activity incubated for 15 mins by fluorescence based assay; format: functional
[5] = Antioxidant activity assessed as ABTS radical scavenging activity measured after 6 mins by absorbance based assay; format: functional
Acetylcholinesterase = Acetylcholinesterase (Homo sapiens, UniProt P22303); assay: Inhibition of human erythrocyte AChE using acetylthiocholine iodide as substrate preincubated for 10 mins followed by substrate addition measured after 15 mins by Ellman's method
Acetylcholinesterase, sequence (P22303 whole entry): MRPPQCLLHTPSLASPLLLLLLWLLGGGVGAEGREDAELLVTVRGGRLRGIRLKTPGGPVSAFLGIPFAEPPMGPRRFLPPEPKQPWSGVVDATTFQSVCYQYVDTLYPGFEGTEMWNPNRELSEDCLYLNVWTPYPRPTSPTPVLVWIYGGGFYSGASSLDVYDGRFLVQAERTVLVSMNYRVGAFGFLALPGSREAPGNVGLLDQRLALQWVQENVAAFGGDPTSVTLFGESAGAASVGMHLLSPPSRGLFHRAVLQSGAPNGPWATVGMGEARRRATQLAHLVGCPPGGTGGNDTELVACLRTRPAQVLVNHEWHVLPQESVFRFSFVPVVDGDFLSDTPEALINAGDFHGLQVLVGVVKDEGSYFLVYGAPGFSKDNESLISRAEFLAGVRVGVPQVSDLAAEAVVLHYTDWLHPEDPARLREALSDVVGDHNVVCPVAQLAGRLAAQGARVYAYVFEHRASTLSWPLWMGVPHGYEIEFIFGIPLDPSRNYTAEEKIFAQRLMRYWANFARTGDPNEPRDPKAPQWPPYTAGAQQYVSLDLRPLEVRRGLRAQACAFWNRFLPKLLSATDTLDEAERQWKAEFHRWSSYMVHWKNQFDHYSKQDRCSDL

HepG2 = assay: Cytotoxicity against human HepG2 cells upto 100 uM incubated for 3 hrs by MTT assay; settings: hepg2, 3 h
[6] = Solubility of compound; format: physicochemical

Row | SMILES | ROS inhibition activity (qualitative) (SK-N-BE(2) [1]) | IC50 (Cholinesterase) [µM] | EC50 [2] [µM] | Activity (SK-N-BE(2) [3]) | Activity [4] | EC50 [5] [µM] | IC50 (Acetylcholinesterase) [µM] | Activity (HepG2) | solubility [6]
1 | COc1cc2c(cc1O)C(=O)C(CC1CCN(Cc3ccccc3)CC1)C2 (stereo unspecified) | inactive | 34.5 | > 400 | Non-toxic | 9.4 | 152 | 0.872 | Non-toxic | –
2 | COc1cc2c(cc1OC)C(=O)C(CC1CCN(Cc3ccccc3)CC1)C2 (stereo unspecified) [DONEPEZIL] | inactive | – | > 1000 | Non-toxic | < 0.5 | > 1000 | – | Non-toxic | –
3 | COc1cc2c(cc1OCCCCCC1CCSS1)CC(CC1CCN(Cc3ccccc3)CC1)C2=O (stereo unspecified) | Active; More Pronounced Effect Than Lipoic Acid | 3.26 | > 400 | Non-toxic | < 0.5 | > 400 | 0.00912 | Non-toxic | Insoluble
4 | O=C(O)CCCC[C@@H]1CCSS1 [THIOCTIC ACID] | Active | – | – | Non-toxic | – | – | – | Non-toxic | –
5 | COc1cc2c(cc1OCCCCCC1CCSS1)C(=O)C(CC1CCN(Cc3ccccc3)CC1)C2 (stereo unspecified) | Active; More Pronounced Effect Than Lipoic Acid | 1.48 | > 400 | Non-toxic | < 0.5 | > 400 | 0.00763 | Non-toxic | –
6 | O=C1c2cc(O)c(O)cc2CC1CC1CCN(Cc2ccccc2)CC1 (stereo unspecified) | Active; Activity Comparable To Vitamin E | 246 | 29.5 | Non-toxic | 2.2 | 12.3 | 1.81 | Non-toxic | soluble
7 | O=c1c(O)c(-c2ccc(O)c(O)c2)oc2cc(O)cc(O)c12 [QUERCETIN] | – | – | 13.8 | – | 4 | 3.4 | – | – | –
8 | COc1cc2c(cc1O)CC(CC1CCN(Cc3ccccc3)CC1)C2=O (stereo unspecified) | – | 35.8 | 32.5 | – | 2.1 | 8.5 | 0.773 | – | –
9 | Cc1c(C)c2c(c(C)c1O)CC[C@@](C)(CCC[C@H](C)CCC[C@H](C)CCCC(C)C)O2 [ALPHA-TOCOPHEROL] | Active | – | 27.5 | Non-toxic | 1 | 15.5 | – | Non-toxic | –
10 | COc1cc2c(cc1OC(=O)CCCCC1CCSS1)C(=O)C(CC1CCN(Cc3ccccc3)CC1)C2 (stereo unspecified) | inactive | 3.99 | > 400 | Non-toxic | < 0.5 | > 400 | 0.0278 | Non-toxic | Insoluble
